Where two headings read alike, the source gives them in different places. Blank lines part the entries; values can stand above or below the compound they belong to. Where a SMILES comes first, the peptide text is derived from it. Bridges are numbered along the chain shown (N, C = ends).
Columns and labels:
[1] = molecular target: alternative pathway of complement activation (Homo sapiens, UniProt P01024); test: Hemolytic assay, alternative pathway: lysis of rabbit erythrocytes in normal human serum with MgEGTA; format: cell-based
Protocol: Inhibition of the alternative pathway was measured by using rabbit erythrocytes in the presence of MgEGTA (FIG. 3A); inhibition of lysis of antibody-coated sheep erythrocytes was used as an indicator of inhibition of the classical pathway (FIG. 3B).
Inhibition of classical and alternative pathway activity by the peptides was measured. […] The reaction mixture was incubated at 37° C. for 1 hour and centrifuged. […] The effect of peptides on the alternative pathway was determined by measuring the lysis of rabbit erythrocytes (Er) in NHS. Various concentrations of peptide were mixed with 5 μl of NHS, 5 μl of MgEGTA and 10 μl of Er (1×10^9 /ml) and brought to a final volume of 100 μl in GVB. The reaction mixture was incubated at 37° C. for 20 minutes and stopped by adding 200 μl of GVBE. […] The percentage of lysis was normalized by considering 100% lysis to be equal to the lysis occurring in the absence of the peptide.

[2] = system: classical pathway-mediated hemolytic activity (thioester of C3); details: read-out: 50% inhibitory concentration, classical pathway-mediated hemolytic activity; cited from earlier work
[3] = system: alternative pathway-mediated hemolytic activity (thioester of C3); details: read-out: 50% inhibitory concentration, alternative pathway-mediated hemolytic activity; cited from earlier work
[4] = system: complement; test: Complement-mediated hemolytic assay (pathway not stated); format: cell-based
Protocol: Inhibition of classical and alternative pathway activity by the peptides was measured. To determine the effect of peptides on the classical pathway, various concentrations of peptide were mixed with 11 μl of normal human serum (NHS, diluted 1:10 in GVB^++) and 5 μl of sheep erythrocytes coated with antibodies (EA) (1×10^9 /ml) and GVB^++ was added to give a total volume of 250 μl. The reaction mixture was incubated at 37° C. for 1 hour and centrifuged. The percentage of lysis was determined by measuring the optical density of the supernatant at 414 nm. The effect of peptides on the alternative pathway was determined by measuring the lysis of rabbit erythrocytes (Er) in NHS. Various concentrations of peptide were mixed with 5 μl of NHS, 5 μl of MgEGTA and 10 μl of Er (1×10^9 /ml) and brought to a final volume of 100 μl in GVB. The reaction mixture was incubated at 37° C. for 20 minutes and stopped by adding 200 μl of GVBE. After centrifugation, hemolysis was determined at 414 nm. The percentage of lysis was normalized by considering 100% lysis to be equal to the lysis occurring in the absence of the peptide.

[5] = molecular target: T1, C3b (Homo sapiens, UniProt P01024); test: Phage clone binding ELISA, immobilized C3b; details: 2 μg coated, 1 hour 22° C.
T1 construct: from tissue; host or cells: normal human plasma; C3 cleaved with trypsin, Mono Q purified
Protocol: (§1) Microtiter wells were coated with 2 μg of C3, C3b, C3c or C3d, saturated with blocking buffer, washed with PBS (pH 7.4) containing 0.05% Tween 20, and incubated 1 hour at 22° C. with a positive (clone 9) or negative (clone 1) clone. Binding was inhibited by adding 250 μg/ml of aggregated C3 in PBS, pH 7.4. Bound M13 phage particles were detected by peroxidase-coupled anti-M13 antibody and ABTS peroxidase substrate. Diagonally lined bars represent peroxidase-coupled anti-M13 antibody bound non-specifically to the plate; cross-hatched bars represent clone 9 bound to C3 or C3 fragments; horizontally lined bars represent clone 9 bound to C3 or C3 fragments in the presence of 250 μg/ml of aggregated C3; and vertically lined bars represent clone 1 bound to C3 or C3 fragments.
(§2) The C3-binding phage was isolated by screening the phage library described in Example 3. Microtiter well plates (Nunc Inc., Naperville, Ill.) were coated overnight with 20 μg of C3b in PBS at 4° C. and blocked with PBS containing 1% BSA for 30 minutes at 22° C. […] The amplified phage mixture obtained after the third round of amplification was plated, and positive phage were identified by confirming their binding to C3b in an ELISA, in which bound phage were detected by peroxidase-labeled anti-M13 antibody (Pharmacia). […]

[6] = molecular target: T2, C3c (Homo sapiens, UniProt P01024); test: Phage clone binding ELISA, immobilized C3c; details: 2 μg coated, 1 hour 22° C.
T2 construct: C3c, 135,300 Mr fragment of C3 generated using elastase; from tissue; host or cells: normal human plasma; C3 treated with elastase, Mono Q purified
Protocol: as §1, §2

[7] = molecular target: T3, C3d (Homo sapiens, UniProt P01024); test: Phage clone binding ELISA, immobilized C3d; details: 2 μg coated, 1 hour 22° C.
T3 construct: C3d, 35,000 Mr fragment of C3 generated using elastase; from tissue; host or cells: normal human plasma; C3 treated with elastase, Mono Q purified
Protocol: as §1, §2

[8] = molecular target: T4, C3 (Homo sapiens, UniProt P01024); test: Phage clone binding ELISA, immobilized C3; details: 2 μg coated, 1 hour 22° C.
T4 construct: purified from normal human plasma in accordance with well known procedures; from tissue; host or cells: normal human plasma (C3, factor B)
Protocol: as §1, §2

[9] = system: complement; details: in vivo; cited from earlier work
[10] = read-out: ALTERNATIVE PATHWAY IC50

alternative pathway of complement activation, sequence (P01024 23-1663): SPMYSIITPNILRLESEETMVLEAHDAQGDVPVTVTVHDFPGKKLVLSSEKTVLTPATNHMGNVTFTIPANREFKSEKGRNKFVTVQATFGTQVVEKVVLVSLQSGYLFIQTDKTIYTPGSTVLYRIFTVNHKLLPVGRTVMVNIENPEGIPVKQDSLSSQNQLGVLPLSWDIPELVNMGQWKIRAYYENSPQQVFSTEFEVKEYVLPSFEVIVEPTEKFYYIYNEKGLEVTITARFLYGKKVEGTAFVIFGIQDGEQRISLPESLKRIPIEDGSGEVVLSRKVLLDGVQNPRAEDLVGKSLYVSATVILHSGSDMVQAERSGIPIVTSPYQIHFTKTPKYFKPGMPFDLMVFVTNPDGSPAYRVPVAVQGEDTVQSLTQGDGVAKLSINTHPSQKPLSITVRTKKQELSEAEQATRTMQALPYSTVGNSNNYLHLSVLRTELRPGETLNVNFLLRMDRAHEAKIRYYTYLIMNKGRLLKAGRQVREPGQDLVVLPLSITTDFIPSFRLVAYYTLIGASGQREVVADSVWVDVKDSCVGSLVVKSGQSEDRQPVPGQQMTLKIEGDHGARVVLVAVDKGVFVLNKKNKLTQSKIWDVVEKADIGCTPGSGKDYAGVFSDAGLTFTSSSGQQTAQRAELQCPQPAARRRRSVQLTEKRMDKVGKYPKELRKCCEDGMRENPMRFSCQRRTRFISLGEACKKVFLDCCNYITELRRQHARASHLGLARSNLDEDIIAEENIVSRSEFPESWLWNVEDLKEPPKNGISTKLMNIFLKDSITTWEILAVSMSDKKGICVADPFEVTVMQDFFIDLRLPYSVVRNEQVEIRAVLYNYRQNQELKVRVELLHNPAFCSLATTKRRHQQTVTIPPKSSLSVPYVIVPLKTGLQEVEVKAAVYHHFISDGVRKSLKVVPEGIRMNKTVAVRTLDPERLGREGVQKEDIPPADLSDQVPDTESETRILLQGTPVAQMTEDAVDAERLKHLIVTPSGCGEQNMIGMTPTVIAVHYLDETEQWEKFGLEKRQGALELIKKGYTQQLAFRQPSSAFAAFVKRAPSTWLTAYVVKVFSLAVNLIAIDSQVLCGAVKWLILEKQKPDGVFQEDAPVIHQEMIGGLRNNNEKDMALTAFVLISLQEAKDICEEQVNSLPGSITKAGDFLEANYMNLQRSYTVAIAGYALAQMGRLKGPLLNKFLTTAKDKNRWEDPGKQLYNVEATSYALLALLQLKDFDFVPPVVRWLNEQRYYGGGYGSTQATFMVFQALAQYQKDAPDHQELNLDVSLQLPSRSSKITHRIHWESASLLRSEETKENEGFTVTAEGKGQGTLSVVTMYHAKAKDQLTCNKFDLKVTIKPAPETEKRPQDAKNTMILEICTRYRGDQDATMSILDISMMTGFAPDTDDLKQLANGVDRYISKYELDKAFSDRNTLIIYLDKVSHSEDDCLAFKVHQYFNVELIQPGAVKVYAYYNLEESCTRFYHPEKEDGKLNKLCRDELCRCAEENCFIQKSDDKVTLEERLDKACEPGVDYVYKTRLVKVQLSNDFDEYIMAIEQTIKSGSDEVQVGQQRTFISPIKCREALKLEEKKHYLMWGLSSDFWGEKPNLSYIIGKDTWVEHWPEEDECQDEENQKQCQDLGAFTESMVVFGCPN
T3 sequence (P01024 1002-1303 limits assumed): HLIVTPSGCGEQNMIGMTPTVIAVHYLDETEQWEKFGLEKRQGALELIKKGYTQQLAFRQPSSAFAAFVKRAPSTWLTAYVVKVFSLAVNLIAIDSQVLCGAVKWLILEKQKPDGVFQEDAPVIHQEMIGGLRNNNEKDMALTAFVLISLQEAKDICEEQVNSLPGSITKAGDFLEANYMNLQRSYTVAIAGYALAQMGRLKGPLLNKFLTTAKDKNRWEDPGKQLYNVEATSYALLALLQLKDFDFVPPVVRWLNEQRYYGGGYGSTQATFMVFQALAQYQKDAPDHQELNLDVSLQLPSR
T2 sequence (P01024 23-667 limits assumed): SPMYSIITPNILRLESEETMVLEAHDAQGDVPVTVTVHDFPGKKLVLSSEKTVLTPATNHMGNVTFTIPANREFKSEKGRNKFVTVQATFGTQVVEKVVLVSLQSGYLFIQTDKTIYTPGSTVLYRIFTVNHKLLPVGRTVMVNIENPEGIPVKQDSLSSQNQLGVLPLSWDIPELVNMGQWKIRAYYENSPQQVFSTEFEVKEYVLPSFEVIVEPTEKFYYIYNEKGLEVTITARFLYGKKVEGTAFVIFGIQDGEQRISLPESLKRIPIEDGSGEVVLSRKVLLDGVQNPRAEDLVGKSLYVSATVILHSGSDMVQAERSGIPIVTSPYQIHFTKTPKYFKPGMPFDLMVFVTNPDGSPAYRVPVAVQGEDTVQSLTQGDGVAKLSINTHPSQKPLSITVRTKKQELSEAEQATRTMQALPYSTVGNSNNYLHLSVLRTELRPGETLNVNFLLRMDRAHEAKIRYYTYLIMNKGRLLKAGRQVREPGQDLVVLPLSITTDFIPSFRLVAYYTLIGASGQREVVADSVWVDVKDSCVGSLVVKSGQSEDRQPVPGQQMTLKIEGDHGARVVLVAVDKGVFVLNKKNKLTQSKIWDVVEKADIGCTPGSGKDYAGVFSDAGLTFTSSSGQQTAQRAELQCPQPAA
T2 sequence (P01024 749-954 limits assumed): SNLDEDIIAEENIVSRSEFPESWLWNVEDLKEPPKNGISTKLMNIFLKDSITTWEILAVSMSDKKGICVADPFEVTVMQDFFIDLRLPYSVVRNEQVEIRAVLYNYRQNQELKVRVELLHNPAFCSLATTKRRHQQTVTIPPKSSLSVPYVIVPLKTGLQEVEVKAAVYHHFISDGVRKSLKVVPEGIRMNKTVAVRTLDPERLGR
T2 sequence (P01024 1321-1663 limits assumed): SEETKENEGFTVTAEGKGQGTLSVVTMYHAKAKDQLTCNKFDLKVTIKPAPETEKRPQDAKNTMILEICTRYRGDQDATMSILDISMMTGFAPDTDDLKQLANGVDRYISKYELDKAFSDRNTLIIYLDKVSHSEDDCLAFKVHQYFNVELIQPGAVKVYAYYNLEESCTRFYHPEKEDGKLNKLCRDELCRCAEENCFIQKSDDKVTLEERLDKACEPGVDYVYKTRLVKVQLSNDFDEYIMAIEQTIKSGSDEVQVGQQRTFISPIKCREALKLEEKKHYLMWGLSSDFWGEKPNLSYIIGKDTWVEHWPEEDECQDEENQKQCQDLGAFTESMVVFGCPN
T4 sequence (P01024 23-667 limits assumed): as the sequence (P01024 23-667 limits assumed) above
T4 sequence (P01024 672-1663 limits assumed): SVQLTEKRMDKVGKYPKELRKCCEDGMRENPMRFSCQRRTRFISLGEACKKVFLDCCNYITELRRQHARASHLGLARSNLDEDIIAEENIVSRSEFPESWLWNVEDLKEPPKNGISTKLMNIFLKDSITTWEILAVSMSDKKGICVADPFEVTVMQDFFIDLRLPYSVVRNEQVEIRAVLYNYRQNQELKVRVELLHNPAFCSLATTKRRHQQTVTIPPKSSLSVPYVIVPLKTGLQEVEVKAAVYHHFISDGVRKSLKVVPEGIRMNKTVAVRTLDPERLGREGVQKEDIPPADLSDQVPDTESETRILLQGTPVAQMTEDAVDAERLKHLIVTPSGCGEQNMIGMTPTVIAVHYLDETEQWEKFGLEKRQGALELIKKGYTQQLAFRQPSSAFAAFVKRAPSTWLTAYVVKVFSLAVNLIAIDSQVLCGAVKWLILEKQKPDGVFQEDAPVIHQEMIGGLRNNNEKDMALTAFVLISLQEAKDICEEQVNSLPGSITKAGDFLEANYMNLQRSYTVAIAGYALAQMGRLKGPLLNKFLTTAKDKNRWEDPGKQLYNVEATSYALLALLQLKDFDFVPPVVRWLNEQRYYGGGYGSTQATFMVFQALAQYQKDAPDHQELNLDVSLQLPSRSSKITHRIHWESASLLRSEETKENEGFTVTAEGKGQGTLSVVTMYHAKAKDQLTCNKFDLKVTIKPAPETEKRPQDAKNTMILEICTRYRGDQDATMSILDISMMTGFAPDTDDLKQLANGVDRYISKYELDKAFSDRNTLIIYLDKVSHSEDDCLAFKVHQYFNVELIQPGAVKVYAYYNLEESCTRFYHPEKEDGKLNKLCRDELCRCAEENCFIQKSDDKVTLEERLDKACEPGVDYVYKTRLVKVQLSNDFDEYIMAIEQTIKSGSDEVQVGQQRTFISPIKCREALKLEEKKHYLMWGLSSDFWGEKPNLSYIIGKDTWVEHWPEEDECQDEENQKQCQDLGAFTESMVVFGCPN

Compound: C[C@@H](O)[C@H](NC(=O)[C@@H]1CSSC[C@H](N)C(=O)N[C@@H](CCC(N)=O)C(=O)N[C@@H](CC(=O)O)C(=O)N[C@@H](Cc2c[nH]c3ccccc23)C(=O)NCC(=O)N[C@@H](Cc2c[nH]cn2)C(=O)N[C@@H](Cc2c[nH]cn2)C(=O)N[C@@H](CCCNC(=N)N)C(=O)N1)C(N)=O [XI] (H-CQDWGHHRCT-NH2; disulfide 1-9)
IC50 [1, 10]: > 600 µM

Compound: CC(C)[C@@H]1NC(=O)[C@H](C(C)C)NC(=O)[C@@H](N)CSSC[C@@H](C(N)=O)NC(=O)[C@H](CCCNC(=N)N)NC(=O)[C@H](Cc2c[nH]cn2)NC(=O)[C@H](Cc2c[nH]cn2)NC(=O)CNC(=O)[C@H](Cc2c[nH]c3ccccc23)NC(=O)[C@H](C)NC(=O)[C@H](CCC(N)=O)NC1=O [XVIII] (H-CVVQAWGHHRC-NH2; disulfide 1-11)
IC50 ([1]; read-out: A[…] IC50): 257 µM

Compound: CC(C)[C@@H]1NC(=O)[C@H](C(C)C)NC(=O)[C@@H](N)CSSC[C@@H](C(N)=O)NC(=O)[C@H](CCCNC(=N)N)NC(=O)[C@H](Cc2c[nH]cn2)NC(=O)[C@H](Cc2c[nH]cn2)NC(=O)CNC(=O)[C@H](Cc2c[nH]c3ccccc23)NC(=O)[C@H](CC(=O)O)NC(=O)[C@H](C)NC1=O [XVII] (H-CVVADWGHHRC-NH2; disulfide 1-11)
IC50 ([1]; read-out: A[…] IC50): 910 µM

Compound: CC(C)[C@@H]1NC(=O)[C@@H](N)CSSC[C@@H](C(N)=O)NC(=O)[C@H](CCCNC(=N)N)NC(=O)[C@H](Cc2c[nH]cn2)NC(=O)[C@H](Cc2c[nH]cn2)NC(=O)CNC(=O)[C@H](Cc2c[nH]c3ccccc23)NC(=O)[C@H](CC(=O)O)NC(=O)[C@H](CCC(N)=O)NC(=O)[C@H](C)NC1=O [XVI] (H-CVAQDWGHHRC-NH2; disulfide 1-11)
IC50 ([1]; read-out: A[…] IC50): 67 µM

Compound: CC(C)[C@@H]1NC(=O)[C@H](C)NC(=O)[C@@H](N)CSSC[C@@H](C(N)=O)NC(=O)[C@H](CCCNC(=N)N)NC(=O)[C@H](Cc2c[nH]cn2)NC(=O)[C@H](Cc2c[nH]cn2)NC(=O)CNC(=O)[C@H](Cc2c[nH]c3ccccc23)NC(=O)[C@H](CC(=O)O)NC(=O)[C@H](CCC(N)=O)NC1=O [XV] (H-CAVQDWGHHRC-NH2; disulfide 1-11)
IC50 ([1]; read-out: A[…] IC50): 1200 µM

Compound: CC(C)[C@@H]1NC(=O)[C@H](C(C)C)NC(=O)[C@@H](N)CSSC[C@@H](C(N)=O)NC(=O)[C@H](C)NC(=O)[C@H](Cc2c[nH]cn2)NC(=O)[C@H](Cc2c[nH]cn2)NC(=O)CNC(=O)[C@H](Cc2c[nH]c3ccccc23)NC(=O)[C@H](CC(=O)O)NC(=O)[C@H](CCC(N)=O)NC1=O [XXIII] (H-CVVQDWGHHAC-NH2; disulfide 1-11)
IC50 [1, 10]: 70 µM

Compound: CC(C)[C@@H]1NC(=O)[C@H](C(C)C)NC(=O)[C@@H](N)CSSC[C@@H](C(N)=O)NC(=O)[C@H](CCCNC(=N)N)NC(=O)[C@H](C)NC(=O)[C@H](Cc2c[nH]cn2)NC(=O)CNC(=O)[C@H](Cc2c[nH]c3ccccc23)NC(=O)[C@H](CC(=O)O)NC(=O)[C@H](CCC(N)=O)NC1=O [XXII] (H-CVVQDWGHARC-NH2; disulfide 1-11)
IC50 ([1]; read-out: A[…] IC50): 74 µM

Compound: CC(C)[C@@H]1NC(=O)[C@H](C(C)C)NC(=O)[C@@H](N)CSSC[C@@H](C(N)=O)NC(=O)[C@H](CCCNC(=N)N)NC(=O)[C@H](Cc2c[nH]cn2)NC(=O)[C@H](C)NC(=O)CNC(=O)[C@H](Cc2c[nH]c3ccccc23)NC(=O)[C@H](CC(=O)O)NC(=O)[C@H](CCC(N)=O)NC1=O [XXI] (H-CVVQDWGAHRC-NH2; disulfide 1-11)
IC50 ([1]; read-out: A[…] IC50): 15 µM

Compound: CC(C)[C@@H]1NC(=O)[C@H](C(C)C)NC(=O)[C@@H](N)CSSC[C@@H](C(N)=O)NC(=O)[C@H](CCCNC(=N)N)NC(=O)[C@H](Cc2c[nH]cn2)NC(=O)[C@H](Cc2c[nH]cn2)NC(=O)[C@H](C)NC(=O)[C@H](Cc2c[nH]c3ccccc23)NC(=O)[C@H](CC(=O)O)NC(=O)[C@H](CCC(N)=O)NC1=O [XX] (H-CVVQDWAHHRC-NH2; disulfide 1-11)
IC50 ([1]; read-out: A[…] IC50): > 1200 µM

Compound: C[C@@H](O)[C@H](NC(=O)[C@@H]1CSSC[C@H](N)C(=O)N[C@@H](CC(=O)O)C(=O)N[C@@H](Cc2c[nH]c3ccccc23)C(=O)NCC(=O)N[C@@H](Cc2c[nH]cn2)C(=O)N[C@@H](Cc2c[nH]cn2)C(=O)N[C@@H](CCCNC(=N)N)C(=O)N1)C(N)=O [X] (H-CDWGHHRCT-NH2; disulfide 1-8)
IC50 [1, 10]: > 600 µM

Compound: O=C(NO)c1ccccc1O [salicyl hydroxamate]
IC50 [2]: 280 µM
IC50 [3]: 33 µM

Compound: ICVVQDWGHHRCTAGHYY [SEQ ID NO: 23, peptide of the invention containing tyrosine residues at its C-terminus]
activity in hemolytic assay [4]: equal activity to Peptide IV

binding of phage clone to C3b [5]: bound
binding of phage clone to C3c [6]: bound
binding of phage clone to C3d [7]: not to C3d
binding of phage clone to C3 [8]: bound
Compound: SSICVVQDWGHHRCTAGHMANLTSHASAIR [Clone 9]

Compound: sCR1: soluble form of CR1 (complement receptor 1)
complement suppression in complement-dependent disease models [9]: suppresses complement

From patent US6319897A, “Peptides which inhibit complement activation” (priority 1999, dated 2001)
